From US11015223B2, “Methods for determining response to a hypomethylating agent” (THE REGENTS OF THE UNIVERSITY OF CALIFORNIA, priority 2013, dated 2021)
“And” between values parts separate entries of the source, which are not always exact repeats. Equal entries are not always repeated.

Tests used:
MDS patients [1] = assay: Response to treatment by IWG response criteria revised in 2006 (CR/PR/HI = responders); assay type: in vivo, human
From the text: A total of 213 MDS patients treated azacitidine or decitabine were included in this study. Samples were obtained from patients treated at the Dana-Farber Cancer Institute (n=42), the MD Anderson Cancer Center (n=104), and as part of the DACO-020 (ADOPT) clinical trial of decitabine (n=67). All samples were collected with patient consent under IRB-approved protocols in accordance with the Declaration of Helsinki. There were no significant differences in baseline patient characteristics by treatment site (Table 1).
Response to treatment was assessed using IWG response criteria revised in 2006. Patients with either a complete response (CR), partial response (PR), or hematologic improvement (HI) were considered as ‘responders’ (R, n=100, 47%). whereas patients described as having ‘no response’, ‘stable disease’, ‘progressive disease’, ‘death’ before response assessment, or ‘not evaluable’ were considered ‘non-responders’ (NR, […], 53%).
Categorical variables were compared using a Fisher exact test, while continuous variables were compared using a Wilcoxon rank-sum test. A Cochran-Mantel-Haenszel (CMH) test was used to test for differences in response rate by mutational status controlling for treatment. Unadjusted and adjusted logistic regression models were used to predict response to therapy. A stepwise algorithm for logistic regression was also utilized to determine a final model; candidate variables considered for inclusion were all mutations, treatment, IPSS classification, age, and sex. The Hosmer and Lemeshow goodness-of-fit test was used to assess model fit for logistic regression models. Overall survival was calculated from the time of treatment to the time of death from any cause or was censored at the date last known alive. Unadjusted and adjusted Cox regression models were constructed for overall survival. A stepwise regression algorithm for Cox regression models was used including the same candidate variables as in the logistic regression modeling. Classification trees were also created using the Rpart package in R version 2.11.1 to classify responders based on mutational status. Cross-validation was used for tree pruning. All p-values reported are two-sided and considered significant at the 0.05 level. No adjustments were made for multiple hypothesis testing.

Tet2-null cells = assay: Competitive murine bone marrow transplant, percent 45.2 chimerism in peripheral blood; assay type: in vivo
Protocol: (§1) Age-matched Tet2^−/−; Mx-Cre^+ and Tet2^+/+; Mx-Cre^+ donor animals (CD45.2) were treated with pIpC (15 μg/g IP) for three non-consecutive days to induce excision of exon 3 of Tet2. Donor bone marrow was harvested two weeks post-pIpC and mixed in a 1:2 ratio with bone marrow harvested from 45.1 WT donors (B6.SJL-Ptprca Pepcb/BoyJ; Jackson), and was then transplanted into 45.1 recipients for a total of 1 million cells/recipient. Peripheral blood engraftment was assessed by FACS at two weeks post-transplant, at which point recipient mice were divided into treatment groups (n=7 per group) and treated with either 5-azacitidine (aza; 2.5 mg/kg IP; Santa Cruz Biotechnology) or vehicle control on the following schedule: two weeks on, two weeks off. Peripheral blood chimerism and CBC were assessed following each round of treatment. Percent 45.2 chimerism was calculated for each time point. Error bars indicate standard error of the mean (SEM) for each group, and p-values for the last time point were calculated using an unpaired two-sample t-test.
The observed association between TET2 mutations and response to treatment could be mediated directly by TET2 loss-of-function or by indirect or cell extrinsic effects. […]

[2] = Peripheral blood CBC of recipient mice in competitive murine bone marrow transplant; assay type: in vivo
Protocol: as §1
The observed association between TET2 mutations and response to treatment could be mediated directly by TET2 loss-of-function or by indirect or cell extrinsic effects. To test whether TET2 loss-of-function can sensitize cells to hypomethylating agents, we performed a competitive murine bone marrow transplant experiment using hematopoietic cells from Tet2-null and wildtype littermate donors. […] There was no difference in pretreatment peripheral blood counts between groups. Treatment with AZA (2.5 mg/kg M-F×2 weeks) or vehicle was begun on day 20 post-transplant and repeated starting on day 48.

MDS patients [3] = conditions: cited from earlier work
[4] = murine bone marrow transplant experiment
[5] = 2.5 mg/kg M-F x 2 weeks, regardless of genotype, vs vehicle

## Nc1ncn([C@@H]2O[C@H](CO)[C@@H](O)[C@H]2O)c(=O)n1 [azacitidine, 5-azacytidine]
MDS patients [1]; all patients on the treatment
  Non-Responders (NR/SD/PD/Died/NE) (%): (52) %
  Non-Responders (NR/SD/PD/Died/NE) N: 22 N
  Responders (CR/PR/HI) N: 20 N
MDS patients [1]; all patients on the treatment, listed as Azacitidine Alone
  Responders (CR/PR/HI) (%): (48) %
MDS patients [1]; patients with ASXL1 mutation
  Response N: 11 N
MDS patients [1]; patients with ATRX mutation, listed as Aza Alone
  Response N: 0 (0) N and 0 N
MDS patients [1]; patients with BCOR mutation
  Response N: 2 N
MDS patients [1]; patients with CBL mutation
  Response N: 1 N
MDS patients [1]; patients with DNMT3A mutation
  Response N: 3 N
MDS patients [1]; patients with ETV6 mutation
  Response N: 2 N
MDS patients [1]; patients with EZH2 mutation
  Response N: 3 N
MDS patients [1]; patients with IDH1 mutation
  Response N: 1 N
MDS patients [1]; patients with IDH2 mutation
  Response N: 2 N
MDS patients [1]; patients with JAK2 mutation
  Response N: 2 N
MDS patients [1]; patients with KDM3A mutation, listed as Aza Alone
  Response N: 0 (0) N and 0 N
MDS patients [1]; patients with KDM6B mutation
  Response N: 1 N
MDS patients [1]; patients with KRAS mutation
  Response N: 1 N
MDS patients [1]; patients with MAML1 mutation, listed as Aza Alone
  Response N: 0 (0) N and 0 N
MDS patients [1]; patients with NF1 mutation
  Response N: 2 N
MDS patients [1]; patients with NOTCH1 mutation
  Response N: 2 N
MDS patients [1]; patients with NOTCH2 mutation
  Response N: 2 N
MDS patients [1]; patients with NPM1 mutation, listed as Aza Alone
  Response N: 0 (0) N and 0 N
MDS patients [1]; patients with NRAS mutation
  Response N: 3 N
MDS patients [1]; patients with PHF6 mutation
  Response N: 1 N
MDS patients [1]; patients with PRPF8 mutation
  Response N: 1 N
MDS patients [1]; patients with PTPN11 mutation, listed as Aza Alone
  Response N: 0 (0) N and 0 N
MDS patients [1]; patients with RUNX1 mutation
  Response N: 3 N
MDS patients [1]; patients with SCAF11 mutation
  Response N: 1 N
MDS patients [1]; patients with SF3B1 mutation
  Response N: 3 N
MDS patients [1]; patients with SRSF2 mutation
  Response N: 3 N
MDS patients [1]; patients with TET2 mutation
  Response N: 6 N
MDS patients [1]; patients with TLR1 mutation, listed as Aza Alone
  Response N: 0 (0) N and 0 N
MDS patients [1]; patients with TP53 mutation
  Response N: 6 N
MDS patients [1]; patients with U2AF1 mutation
  Response N: 4 N
MDS patients [1]; patients with ZRSR2 mutation
  Response N: 1 N
Tet2-null cells; Tet2-null cells, after two cycles, 2.5 mg/kg IP
  level of representation in peripheral blood: significantly decreased level of representation
Tet2-null cells; [4]
  clonal advantage associated with loss of Tet2 function: preferentially decreased
[2]; [5]
  WBC levels: significant decreases
  hematocrit: significant decreases
[2]; [4]
  total number of mature granulocytes: increasing
MDS patients [3]; TET2 mutations detected by Sanger sequencing
  MDS patients with TET2 mutations who responded to treatment: 11 of 13
MDS patients [3]; overall cohort of 86 patients
  response rate: 52%
